The values that follow come from patent US5882671A, “Anxiolytic agents” (Eli Lilly and Company, priority 1997, dated 1999).

“Also recorded” adds a separate entry of the source. Where a name gives a salt, the structure may show the parent alone. Read-outs that look alike come from different tables or passages of the source.

Data set [1] relates to fear potentiated startle response. In words: fear potentiated startle model of anxiety. Type of data set: in vivo, Male Long Evans rats. As to conditions: statement in words. The source says:
In the fear potentiated startle model, animals are exposed to a neutral stimulus such as light (conditioned stimulus) with an aversive stimulus such as a shock (unconditioned stimulus). Following conditioning, when the animals are presented with a loud acoustic stimulus, larger startle responses are elicited when the startle stimulus is preceded by light. The difference in amplitude between the startle response when conditioned animals are exposed to the aversive stimulus paired with a neutral stimulus and the startle response when the conditioned animal is exposed only to the aversive stimulus is known as fear potentiated startle. The amplitude of the startle response when the animal is exposed only to the aversive stimulus is known as the baseline startle. Test compounds which are effective in this model decrease the fear potentiated startle response. It is emphasized that what is being determined experimentally is the difference between the startle response with paired stimuli and the baseline startle; test compounds which are anxiolytics may increase, decrease or leave unchanged the baseline startle response. (Davis, TiPS, January 1992 [Vol. 13], 35-41).
(§1) Male Long Evans rats (180-400 g) or male NIH Swiss mice (18-35 g) were obtained from Harlan Sprague-Dawley, Cumberland, Ind., U.S.A. and acclimated at least 3 days before testing. Animals were housed at 23°±2° C. (relative humidity 30% to 70%) and given Purina Certified Rodent Chow and water ad libitum. The photoperiod was 12 hours of light and 12 hours of dark, with dark onset at approximately 1800 hours.
(§2) Test compounds were dissolved in a vehicle of purified water and neutralized with 5N NaOH to a pH of 7-8 when applicable. […] Control animals received the respective vehicle.
SL-LAB (San Diego Instruments, San Diego, Calif.) chambers were used for conditioning sessions and for the production and recording of startle responses. A classical conditioning procedure was used to produce potentiation of startle responses. Briefly, on the first 2 days, rats were placed into dark startle chambers in which shock grids were installed. Following a 5-minute acclimation period, each rat received a 1 mA electric shock (500 ms) preceded by a 5 second presentation of light (15 watt) which remained on for the duration of the shock. Ten presentations of the light and shock were given in each conditioning session, […] A block of 10 consecutive presentations of acoustic startle stimuli (110 dB, non-light-paired) were presented at the beginning of the session in order to minimize the influences of the initial rapid phase of habituation to the stimulus. […]

The test system of data set [2] is natural aversion to height and open spaces. In words: automated elevated plus maze model of anxiety. The format is in vivo, male NIH Swiss mice. The protocol: The elevated plus maze model is based upon the natural aversion of rodents to height and open spaces.
as §1, §2
Construction of the elevated plus-maze was based on a design validated for mice by Lister (1987). The entire maze was made of clear Plexiglas. The maze was comprised of two open arms (30×5×0.25 cm) and two enclosed arms (30×5×15 cm). The floor of each maze arm was corrugated to provide texture. The arms extended from a central platform and angled at 90 degrees from each other. The maze was elevated to a height of 45 cm above the floor and illuminated by red light. Individual infrared photocells were mounted along each arm of the maze to monitor closed, open, or nosepoke activity. Mice were individually placed on the central platform of the maze and the number of closed arm, open arm, and nosepoke (poking head only into open arm from closed arm of maze) counts were recorded and used as a measure of arm entries and time spent on various sections of the maze over a five-minute test period.

For data set [3], the system named is negatively coupled cAMP-linked metabotropic glutamate receptors. Kind of data set: selectivity of agonism at metabotropic glutamate receptors. From the text: As described previously herein, it is preferred to use an agonist which acts selectively at negatively coupled cAMP-linked metabotropic glutamate receptors (relative to other glutamate receptors) in the methods according to the invention. Such an agonist may be a single compound, for example one of the four compounds named hereinabove, or two or more compounds which, in combination function as an agonist which acts selectively at negatively coupled cAMP-linked metabotropic glutamate receptors.

Data set [4] has the same test system. The conditions noted are these: Schoepp and Johnson, Neuropharmacology Vol. 32; cited from earlier work.
The test system of data set [5] is fear potentiated startle response. As to conditions: reference anxiolytics, presentation of light, cited from earlier work.
Data set [6] deals with natural aversion to height and open spaces. As to conditions: reference anxiolytics, cited from earlier work.
The next data set has as its system anxiety disorders. The conditions noted are these: in vivo; cited from earlier work.

For `NC1(C(=O)O)CCC2C(C(=O)O)C21` (single isomer, unassigned; (+)) [(+)-2-Aminobicyclo[3.1.0]hexane-2,6-dicarboxylic Acid], the “efficacy in fear potentiated startle model of anxiety” value in data set [1] is “effective”. Also, the Nosepoke counts result in data set [2] (oral, 3 mg/kg, mice, five-minute test period) is recorded as “significant increase”. Moreover, the open arm activity result in data set [2] (oral, 1, 3 and 10 mg/kg, mice, five-minute test period) is “significant increases”. In addition, the “Closed arm activity counts” value in data set [2] (oral, any dose, mice, five-minute test period) is listed as “not significantly altered”. Besides, in data set [2] (statement in words), the “efficacy in elevated plus maze model of anxiety” value is recorded as “effective”. Besides, the “selectivity as agonist at negatively coupled cAMP-linked metabotropic glutamate receptors” value (“selectivity as agonist” for short) in data set [3] is given as “acts selectively as an agonist”.
With `N[C@@]1(C(=O)O)CC[C@@H](C(=O)O)C1` [1S,3R-1-aminocyclopentane-1,3-dicarboxylic acid], in data set [4], the “action at PI-linked metabotropic glutamate receptors” value is listed as “also acts at PI-linked metabotropic glutamate receptors” and the “selectivity at negatively coupled cAMP-linked metabotropic glutamate receptors” value was “act non-selectively”.
Turning to `N[C@@]1(C(=O)O)CS[C@@H]2[C@H](C(=O)O)[C@@H]21` (relative stereo) [1SR,4SR,5RS,6SR-4-amino-2-thiabicyclo[3.1.0]hexane-4,6-dicarboxylic acid], in data set [1], the “efficacy in fear potentiated startle model of anxiety” value is “effective”. The “selectivity as agonist” value in data set [3] is “act selectively as agonists”.
Turning to `O=C1CC2(CCCC2)CC(=O)N1CCCCN1CCN(c2ncccn2)CC1` [Buspirone hydrochloride, buspirone hydrochloride], the “reduction of fear (increased startle response) in the fear potentiated startle model” value in data set [5] (hydrochloride) is reported as “effective at reducing the fear”. In data set [6] (hydrochloride), the “reduction of fear of open spaces in the elevated plus maze model” value is recorded as “effective; also recorded: reducing the fear of open spaces”. In addition, the dependence-inducing side effects entry in the data set with anxiety disorders is “lacks the dependence-inducing side effects”.
As to `CN1C(=O)CN=C(c2ccccc2)c2cc(Cl)ccc21` [Diazepam], the “reduction of fear (increased startle response) in the fear potentiated startle model” value in data set [5] was “effective at reducing the fear”. In addition, the “reduction of fear of open spaces in the elevated plus maze model” value in data set [6] was “reducing the fear of open spaces”.
For the molecule `N[C@@]1(C(=O)O)CO[C@H]2[C@H](C(=O)O)[C@H]21` [1R,4R,5S,6R-4-amino-2-oxabicyclo[3.1.0]hexane-4,6-dicarboxylic acid], the “efficacy in fear potentiated startle model of anxiety” value in data set [1] is given as “effective”. Besides, the “selectivity as agonist” value in data set [3] was “act selectively as agonists”.
As to `N[C@]1(C(=O)O)CO[C@@H]2[C@@H](C(=O)O)[C@@H]21` (relative stereo) [1SR,4SR,5RS,6SR-4-amino-2-oxabicyclo[3.1.0]hexane-4,6-dicarboxylic acid], the “efficacy in fear potentiated startle model of anxiety” value in data set [1] is “effective”. Moreover, in data set [3], the “selectivity as agonist” value is on record as “act selectively as agonists”.
